Assays:
lambsquarters = experiment: Test B pre-/postemergence herbicide test; format: in vivo, Chenopodium album; conditions: for Plant response rating (0 to 100 scale), Lambsquarters: 0 is no effect, 100 is complete control, preemergence
Outline: (§1)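 Evaluation is visual, comparing treated with control plants on a scale where 0 means no effect and 100 means full control. Treatments were preemergence, or postemergence on seedlings 2–18 cm tall, and held 13–15 days in the greenhouse.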

large crabgrass = experiment: Test B pre-/postemergence herbicide test; format: in vivo, Digitaria sanguinalis; conditions: for Plant response rating (0 to 100 scale), Crabgrass, Large: 0 is no effect, preemergence
Outline: as §1

barnyardgrass [1] = experiment: Test B flooded paddy test; format: in vivo, Echinochloa crus-galli; conditions: 1000 g ai/ha, scale 0 to 100 (0 no effect, 100 complete control)
Outline: (§2)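 Postemergence plants were sprayed with formulated test chemicals at 2 to 18 cm height (1- to 4-leaf stage); paddy species were grown to the 2-leaf stage. After 13 to 15 days in a greenhouse, injury was rated visually against untreated controls on a 0–100 scale (0 = no effect, 100 = complete control).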

[2] = test system: small flower umbrella sedge; experiment: Test B flooded paddy test; format: in vivo, Cyperus difformis; conditions: 1000 g ai/ha, scale 0 to 100 (0 no effect, 100 complete control)
Outline: as §2

pigweed = experiment: Test B pre-/postemergence herbicide test; format: in vivo, Amaranthus retroflexus; conditions: for Plant response rating (0 to 100 scale), Pigweed: 0 is no effect, 100 is complete control, preemergence
Outline: as §1

barnyardgrass [3] = experiment: Test B pre-/postemergence herbicide test; format: in vivo, Echinochloa crus-galli; conditions: for Plant response rating (0 to 100 scale), Barnyardgrass: 0 is no effect, preemergence
Outline: (§3)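 Seeds were planted and treated preemergence with compounds formulated in a non-phytotoxic solvent mixture containing surfactant, while plants at the 1- to 4-leaf stage (2 to 18 cm) received postemergence sprays. Flooded paddy plants were grown to the 2-leaf stage. After 13 to 15 days in a greenhouse, injury was visually rated 0–100 against untreated controls.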

cocklebur = experiment: Test B pre-/postemergence herbicide test; format: in vivo, Xanthium strumarium; conditions: for Plant response rating (0 to 100 scale), Cocklebur: 0 is no effect, preemergence
Outline: as §3

morningglory = experiment: Test B pre-/postemergence herbicide test; format: in vivo, Ipomoea coccinea; conditions: for Plant response rating (0 to 100 scale), Morningglory: 0 is no effect, 100 is complete control, preemergence
Outline: as §3

wheat = experiment: Test B postemergence herbicide test; format: in vivo, Triticum aestivum; design: key to Wheat plant response rating: 0 = no effect, 100 = complete control
Outline: (§4)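 Each value is a visual 0–100 response rating taken against controls 13 to 15 days after treatment in the greenhouse. Plants received formulated chemical postemergence at the 1- to 4-leaf stage or, in flooded paddy, at the 2-leaf stage.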

giant foxtail = experiment: Test B pre-/postemergence herbicide test; format: in vivo, Setaria faberi; conditions: for Plant response rating (0 to 100 scale), Foxtail, Giant: 0 is no effect, preemergence
Outline: as §1

velvetleaf = experiment: Test B pre-/postemergence herbicide test; format: in vivo, Abutilon theophrasti; conditions: for Plant response rating (0 to 100 scale), Velvetleaf: 0 is no effect, 100 is complete control, preemergence
Outline: as §1

ducksalad = experiment: Test B flooded paddy test; format: in vivo, Heteranthera limosa; conditions: 1000 g ai/ha, scale 0 to 100 (0 no effect, 100 complete control)
Outline: as §2

wild oat = experiment: Test B postemergence herbicide test; format: in vivo, Avena fatua
Outline: as §4

rice = experiment: Test B flooded paddy test; format: in vivo, Oryza sativa; conditions: 1000 g ai/ha, scale 0 to 100 (0 no effect, 100 complete control)
Outline: as §4

Surinam grass = experiment: Test B pre-/postemergence herbicide test; format: in vivo, Urochloa decumbens; conditions: for Plant response rating (0 to 100 scale), Surinam Grass: 0 is no effect, 100 is complete control, preemergence
Outline: as §1

[4] = Postemergence, 500 g ai/ha, scale 0 (no effect) to 100 (complete control)
[5] = postemergence, 125 g ai/ha, scale 0 to 100
[6] = 125 g ai/ha, 100 is complete control
[7] = 500 g ai/ha, scale 0 to 100, 0 no effect, 100 complete control, preemergence
[8] = 125 g ai/ha, visual rating, scale 0 (no effect) to 100 (complete control), postemergence
[9] = postemergence, 500 g ai/ha, scale 0 to 100, 0 is no effect, 100 is complete control

Compound | Plant response rating (0 to 100 scale), Lambsquarters (lambsquarters; 125 g ai/ha) | Lambsquarters plant response rating (lambsquarters; [4]) | Plant response rating (0 to 100 scale), Crabgrass, Large (large crabgrass; [6]) | Barnyardgrass plant response rating (barnyardgrass [1]) | Sedge, Umbrella plant response rating [2] | Plant response rating (0 to 100 scale), Pigweed (pigweed; 125 g ai/ha) | Pigweed plant response rating (pigweed; [4]) | Plant response rating (0 to 100 scale), Barnyardgrass (barnyardgrass [3]; [6]) | Plant response rating (0 to 100 scale), Cocklebur (cocklebur; [6]) | Plant response rating (0 to 100 scale), Morningglory (morningglory; 125 g ai/ha) | Morningglory plant response rating (morningglory; [4]) | Wheat plant response rating (wheat; [7]) | Wheat plant response rating (wheat; [4]) | Plant response rating (0 to 100 scale), Foxtail, Giant (giant foxtail; [6]) | Plant response rating (0 to 100 scale), Velvetleaf (velvetleaf; 125 g ai/ha) | Velvetleaf plant response rating (velvetleaf; [4]) | Ducksalad plant response rating (ducksalad) | Oat, Wild plant response rating (wild oat; [4]) | Rice plant response rating (rice) | Plant response rating (0 to 100 scale), Surinam Grass (Surinam grass; 125 g ai/ha) | also measured
CCc1nn(C(C)(C)C)nc1C(=O)Nc1cccc(C(=O)NC2CC2)c1 [Compound 417] | 90 | 80 | 100 | 70 | 70 | 90 | 80 | 80 | 0 | 0 | 60 | 90 | 20 | 70 | 50 | 40 | 80 | 40 | 70 | 80 | Lambsquarters plant response rating (lambsquarters; [5]): 70; Crabgrass, Large plant response rating (large crabgrass; [4]): 40; Crabgrass, Large plant response rating (large crabgrass; [5]): 20; Pigweed plant response rating (pigweed; [5]): 50; Barnyardgrass plant response rating (barnyardgrass [3]; Postemergence, 125 g ai/ha, scale 0 (no effect) to 100 (complete control)): 10; Barnyardgrass plant response rating (barnyardgrass [3]; [4]): 20; Cocklebur plant response rating (cocklebur; [4]): 40; Cocklebur plant response rating (cocklebur; [5]): 20; Morningglory plant response rating (morningglory; [5]): 50; Wheat plant response rating (wheat; [5]): 10; Foxtail, Giant plant response rating (giant foxtail; [4]): 40; Foxtail, Giant plant response rating (giant foxtail; [5]): 20; Velvetleaf plant response rating (velvetleaf; [5]): 20; Oat, Wild plant response rating (wild oat; [5]): 10; Surinam Grass plant response rating (Surinam grass; [4]): 30; Surinam Grass plant response rating (Surinam grass; [5]): 10
C#CCNC(=O)c1cccc(NC(=O)c2nn(C(C)(C)C)nc2CC)c1 [Compound 380] | 90 | 70 | 90 | 70 | 70 | 100 | 80 | 70 | 0 | 10 | 60 | 100 | 10 | 70 | 10 | 30 | 80 | 30 | 70 | 40 | Lambsquarters plant response rating (lambsquarters; [8]): 60; Crabgrass, Large plant response rating (large crabgrass; [8]): 0; Crabgrass, Large plant response rating (large crabgrass; [9]): 10; Pigweed plant response rating (pigweed; [8]): 50; Barnyardgrass plant response rating (barnyardgrass [3]; [8]): 0; Barnyardgrass plant response rating (barnyardgrass [3]; [9]): 0; Cocklebur plant response rating (cocklebur; [8]): 20; Cocklebur plant response rating (cocklebur; [9]): 30; Morningglory plant response rating (morningglory; [8]): 20; Wheat plant response rating (wheat; [8]): 10; Foxtail, Giant plant response rating (giant foxtail; [8]): 0; Foxtail, Giant plant response rating (giant foxtail; [9]): 20; Velvetleaf plant response rating (velvetleaf; [8]): 10; Oat, Wild plant response rating (wild oat; [8]): 10; Surinam Grass plant response rating (Surinam grass; [8]): 10; Surinam Grass plant response rating (Surinam grass; [4]): 30

— US20060069132A1, “Azolecarboxamide herbicides” (priority 2004, published 2006)
